Assay results: patent US7468178B2, “Methods for identifying compounds that modulate vigilance states” (Neurosciences Research Foundation, Inc., priority 1999, dated 2008)

Tests used:
Drosophila [1] = system: Drosophila
Protocol: In order to monitor fly behavior, five-day old virgin female Canton-S Drosophila melanogaster were cultured at 25° C., 50-60% humidity, 12 hr:12 hr light:dark cycle, on brewer's yeast, dark corn syrup and agar food, following procedures modified from J. Bennett and D. L. van Dyke, Dros. […] Continuous, high-resolution measurement of fly behavior was achieved using an ultrasound activity monitoring system shown in FIG. 1A. Briefly, a 44 kHz standing wave was passed across an independent enclosure containing a single fly. An integrated circuit sampled a portion of each wave as a function of the transmit signal and compared it to the output from the receive signal for the same time-window. When the fly moved its mass within the field, it perturbed the standing wave and the resulting difference was counted as a movement. The output was sampled by a PC at 200 Hz, the data were summed in 2-sec bins and stored for later processing. This system detects very small movements in Drosophila's behavioral repertoire, including fine movements of the head, wings, and limbs. To monitor rest-activity patterns in large numbers of flies, an infrared Drosophila Activity Monitoring System was used (Trikinetics; described in M. Hamblen et al., J. Neurogen. 3:249 (1986)). To validate the system, flies were visually monitored for a total of 17.75 h (n=7). The number of times the fly crossed the infrared beam was counted in 5-minute bins. […] Drugs (caffeine or hydroxyzine) dissolved in food were continuously available to flies beginning in the final hour of the light period.

Drosophila [2] = experiment: Responsiveness to arousing stimuli (arousal threshold) in flies; assay type: in vivo, Drosophila melanogaster; settings: flies given drug in food
Protocol: In order to determine whether periods of rest are associated with increased arousal thresholds, flies were subjected to vibratory stimuli of increasing intensity (0.05 g, 0.1 g, and 6 g). In these experiments, flies were placed in glass tubes (65 mm in length, 5 mm I.D.) maintained on a hard plastic platform above a Grass speaker. The output of the speaker was controlled via a Beckman signal generator and the resulting vibration of the platform was measured with an accelerometer. Each fly received a stimulus each hour (total of 8 stimuli) of constant intensity. The behavioral state at the time of stimulus delivery and the ensuing response were videotaped and scored off-line.

responsiveness to arousing stimuli (Drosophila [2]) | total amount of activity during the light period (Drosophila [1]; in vivo) | SMILES | motor activity (Drosophila [1]; flies given drug in food from final hour of light period) | amount of rest during the dark period (Drosophila [1]; flies given drug in food from final hour of light period, FIG. 3C, n=36/dose, p<0.0001) | rest during the first hour of the dark period (Drosophila [1]; flies given drug in food from final hour of light period, FIG. 3D, n=40/dose) | latency to first dark period rest (Drosophila [1]; flies given drug in food from final hour of light period, FIG. 3E, n=40/dose)
– | – | Cn1c(=O)c2c(ncn2C)n(C)c1=O [caffeine] | increased | decreased in a dose-dependent fashion | – | –
preserved | unchanged | OCCOCCN1CCN(C(c2ccccc2)c2ccc(Cl)cc2)CC1 (stereo not drawn) [hydroxyzine] | – | – | increased in a dose-dependent manner | decreased
